Assay results published in patent US7838256B2, “Assay and kit for drug efflux transporter activity” (Board of Regents of the University of Nebraska, priority 2007, dated 2010).

Experiments:
[1] = tested on: MDR proteins; test: Intracellular accumulation of calcein in MDCK-MDR1 cells in the presence of therapeutic agents and trypan blue; conditions: for Area Under the Curve ± SEM (intracellular calcein accumulation): monitored for 300 minutes; for interaction with MDR proteins (area under the curve of calcein vs control): summary statement
Description: Intracellular accumulation was monitored for 300 minutes in a 96-well format and the area under curve for each treatment was determined. The larger the area under the curve, the greater the intracellular accumulation of calcein and, by extension, the greater the influence of the therapeutic agent on MDR protein activity.

[2] = tested on: MDR proteins; test: Intracellular accumulation of fluorescent drug efflux probes in MDCK-MDR1 cells with trypan blue; format: cell-based, human; conditions: calcein-AM 1 μM, BCECF-AM 1 μM, rhodamine 123 3.2 μM, 0.04% or 0.1% trypan blue
[3] = tested on: MDR proteins; test: Intracellular accumulation of fluorescent drug efflux probes in Caco2 cells with trypan blue; format: cell-based, human; conditions: calcein-AM 1 μM, BCECF-AM 1 μM, rhodamine 123 3.2 μM, 0.04% or 0.1% trypan blue
Description: (§1) FIGS. 1A-1C show intracellular accumulation of calcein-AM (1 μM) in Madin-Darby canine kidney cells transfected with human MDR1 gene (MDCK-MDR1; FIG. 1A); human, […], colon adenocarcinoma cells (Caco2; FIG. 1B); and bovine brain microvessel endothelial cells (BBMEC, FIG. 1C) exposed to MDR1 inhibitor GF120918, MRP inhibitor indomethacin, or GF120918 in combination with indomethacin. Trypan blue (0.04%) was used to quench extracellular fluorescence.
(§2) FIGS. 2A-2C show intracellular accumulation of BCECF-AM (1 μM) in MDCK-MDR1 (FIG. 2A), Caco2 (FIG. 2B), and BBMEC (FIG. 2C) cells exposed to MDR1 inhibitor GF120918, MRP inhibitor indomethacin, or GF120918 in combination with indomethacin. Trypan blue (0.04%) was used to quench extracellular fluorescence.
(§3) FIGS. 3A-3C show intracellular accumulation of rhodamine 123 (3.2 μM) in MDCK-MDR1 (FIG. 3A), Caco2 (FIG. 3B), and BBMEC (FIG. 3C) cells exposed to MDR1 inhibitor GF120918, MRP inhibitor indomethacin, or GF120918 in combination with indomethacin. Trypan blue (0.1%) was used to quench extracellular fluorescence. […]

[4] = target: T1, MDR1 (Homo sapiens, UniProt P08183)
[5] = tested on: MDR proteins; test: Intracellular accumulation of fluorescent drug efflux probes in BBMEC cells with trypan blue; format: cell-based, bovine; conditions: calcein-AM 1 μM, BCECF-AM 1 μM, rhodamine 123 3.2 μM, 0.04% or 0.1% trypan blue
Description: as §1, §2, §3

[6] = target: T1, MDR1; conditions: isolated membranes; Homolya et al. (1993); read-out: Kd as activator of MDR1; cited from earlier work

T1 sequence (P08183 whole entry, species assumed): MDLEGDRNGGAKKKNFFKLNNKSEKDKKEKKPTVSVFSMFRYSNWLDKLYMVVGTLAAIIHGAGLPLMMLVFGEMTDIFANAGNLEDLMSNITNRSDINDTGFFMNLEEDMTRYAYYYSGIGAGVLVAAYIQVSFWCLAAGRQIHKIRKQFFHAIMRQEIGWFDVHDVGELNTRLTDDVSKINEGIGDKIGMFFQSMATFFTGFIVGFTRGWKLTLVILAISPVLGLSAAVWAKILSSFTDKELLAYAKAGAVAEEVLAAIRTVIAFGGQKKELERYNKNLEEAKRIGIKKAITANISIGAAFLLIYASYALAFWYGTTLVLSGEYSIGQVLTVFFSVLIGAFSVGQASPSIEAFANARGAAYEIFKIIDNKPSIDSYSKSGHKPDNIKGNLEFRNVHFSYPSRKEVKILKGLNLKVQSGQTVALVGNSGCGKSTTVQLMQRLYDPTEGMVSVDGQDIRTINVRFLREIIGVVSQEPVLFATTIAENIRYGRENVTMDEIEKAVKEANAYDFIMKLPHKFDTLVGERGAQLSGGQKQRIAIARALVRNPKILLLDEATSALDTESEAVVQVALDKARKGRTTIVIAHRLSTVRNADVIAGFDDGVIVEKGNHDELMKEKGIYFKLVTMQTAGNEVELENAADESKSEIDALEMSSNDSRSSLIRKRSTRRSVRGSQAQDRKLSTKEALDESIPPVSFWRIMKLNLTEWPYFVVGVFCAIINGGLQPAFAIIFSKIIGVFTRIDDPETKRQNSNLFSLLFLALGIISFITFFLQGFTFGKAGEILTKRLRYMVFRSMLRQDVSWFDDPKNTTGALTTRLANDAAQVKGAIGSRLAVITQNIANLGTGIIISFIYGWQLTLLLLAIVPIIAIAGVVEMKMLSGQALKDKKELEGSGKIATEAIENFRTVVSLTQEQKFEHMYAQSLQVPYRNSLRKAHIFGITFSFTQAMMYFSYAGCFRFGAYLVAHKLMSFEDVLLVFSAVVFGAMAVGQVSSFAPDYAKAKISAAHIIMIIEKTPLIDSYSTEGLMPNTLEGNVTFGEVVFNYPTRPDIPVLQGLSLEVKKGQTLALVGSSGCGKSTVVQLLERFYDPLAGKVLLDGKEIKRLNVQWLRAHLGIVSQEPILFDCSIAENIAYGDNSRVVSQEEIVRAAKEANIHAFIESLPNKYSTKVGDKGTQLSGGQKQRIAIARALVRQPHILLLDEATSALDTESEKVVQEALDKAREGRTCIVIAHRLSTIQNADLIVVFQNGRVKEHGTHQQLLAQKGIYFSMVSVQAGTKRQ

Row | Compound | Ratio to Control (area under the curve) ([1]; 1 μM) | Area Under the Curve ± SEM (intracellular calcein accumulation) ([1]; 1 μM) | Ratio to Control (area under the curve) ([1]; 10 μM) | Area Under the Curve ± SEM (intracellular calcein accumulation) ([1]; 10 μM) | Ratio to Control (area under the curve) ([1]; 100 μM) | Area Under the Curve ± SEM (intracellular calcein accumulation) ([1]; 100 μM) | intracellular accumulation of calcein-AM, BCECF and rhodamine 123 [2] | intracellular accumulation of calcein-AM, BCECF and rhodamine 123 [3] | intracellular accumulation of calcein-AM, BCECF and rhodamine 123 [5] | interaction with MDR proteins (area under the curve of calcein vs control) [1] | other results
1 | O=c1[nH]cc(F)c(=O)[nH]1 [5-Fluorouracil, 5-fluorouracil] | 1.20 | 3.07 ± 0.217 | 1.30 | 3.33 ± 0.269 | 0.87 | 2.24 ± 0.322 |  |  |  |  | 
2 | COc1cc2c(cc1OC)CN(CCc1ccc(NC(=O)c3cccc4c(=O)c5cccc(OC)c5[nH]c34)cc1)CC2 [GF120918] |  |  |  |  |  |  | increase in the intracellular accumulation | increase in the intracellular accumulation | increase in the intracellular accumulation |  | Ratio to Control (area under the curve) ([1]; 3.2 μM): 8.81; Area Under the Curve ± SEM (intracellular calcein accumulation) ([1]; 3.2 μM): 22.57 ± 0.729; initial fluorescence (uptake of rhodamine 123 at a single time point) [4]: greater initial fluorescence
3 | Cc1nc2n(c(=O)c1CCN1CCC(c3noc4cc(F)ccc34)CC1)CCCC2 [Risperidone, risperidone] | 1.53 | 3.92 ± 0.412 | 2.19 | 5.62 ± 0.259 | 6.64 | 17.02 ± 0.310 |  |  |  | strong interaction with MDR proteins | 
4 | CC(C)CN(C[C@@H](O)[C@H](Cc1ccccc1)NC(=O)O[C@H]1CCOC1)S(=O)(=O)c1ccc(N)cc1 [amprenavir] |  | 4.06 ± 0.518 |  | 5.44 ± 0.357 |  | 16.25 ± 0.798 |  |  |  | strong interaction with MDR proteins | 
5 | COc1ccc2c(c1)c(CC(=O)O)c(C)n2C(=O)c1ccc(Cl)cc1 [indomethacin] |  |  |  |  |  |  | increase in the intracellular accumulation | increase in the intracellular accumulation | increase in the intracellular accumulation |  | 
6 | calcein-acetoxy-methylester [Calcein-AM] |  |  |  |  |  |  |  |  |  |  | Kd [6]: ≤ 1000 nM
